Reference: patent US9809542B2, “Spiroheterocyclically substituted tetramic acid derivatives” (BAYER INTELLECTUAL PROPERTY GMBH, priority 2010, dated 2017)

Columns and labels:
Format in all cases: in vivo
[1] = tested on: caterpillars of the armyworm (Spodoptera frugiperda); experiment: Spodoptera frugiperda test (SPODFR spray treatment); conditions: application rate 500 g/ha, maize leaf discs, after 7 days
Protocol: Spodoptera frugiperda Test (SPODFR Spray Treatment)
(§1) Solvents: 78.0 parts by weight of acetone
(§2) • 1.5 parts by weight of dimethylformamide Emulsifier: 0.5 part by weight of alkylaryl polyglycol ether
To produce a suitable preparation of active compound, 1 part by weight of active compound is mixed with the stated amounts of solvents and emulsifier, and the concentrate is diluted with emulsifier-containing water to the desired concentration. Discs of maize leaves (Zea mays) are sprayed with an active compound preparation of the desired concentration and, after drying, populated with caterpillars of the armyworm (Spodoptera frugiperda).
After 7 days, the effect in % is determined. 100% means that all caterpillars have been killed; 0% means that none of the caterpillars have been killed.

[2] = tested on: green peach aphid (Myzus persicae); experiment: Myzus test (MYZUPE spray treatment); conditions: application rate 500 g/ha, Chinese cabbage leaf discs, after 6 days
Protocol: Myzus Test (MYZUPE Spray Treatment)
Solvents: 78 parts by weight of acetone
as §2
To produce a suitable preparation of active compound, 1 part by weight of active compound is mixed with the stated amounts of solvents and emulsifier, and the concentrate is diluted with emulsifier-containing water to the desired concentration. Discs of Chinese cabbage (Brassica pekinensis) which are infested by all stages of the green peach aphid (Myzus persicae) are sprayed with an active compound preparation of the desired concentration. After 6 days, the effect in % is determined. 100% means that all aphids have been killed; 0% means that none of the aphids have been killed.

[3] = tested on: greenhouse red spidermite (Tetranychus urticae); experiment: Tetranychus test OP-resistant (TETRUR spray treatment); conditions: application rate 100 g/ha, bean leaf discs, after 6 days
Protocol: Tetranychus Test OP-Resistant (TETRUR Spray Treatment)
as §1, §2
To produce a suitable preparation of active compound, 1 part by weight of active compound is mixed with the stated amounts of solvents and emulsifier, and the concentrate is diluted with emulsifier-containing water to the desired concentration. Discs of bean leaves (Phaseolus vulgaris) which are infested by all stages of the greenhouse red spidermite (Tetranychus urticae) are sprayed with an active compound preparation of the desired concentration.
After 6 days, the effect in % is determined. 100% means that all spidermites have been killed; 0% means that none of the spidermites have been killed.

Echinocloa crus-galli [4] = experiment: Herbicidal post-emergence action; conditions: post-emergence method, 80 g/ha; about 3 weeks
Source text: (§3) • Seeds of monocotyledonous and dicotyledonous weed and crop plants are placed in sandy loam in wood fibre pots and covered with soil. The test compounds, formulated in the form of wettable powders (WP), are then, as aqueous suspension with a water application rate of 600 l/ha (converted), with 0.2% of wetting agent added, applied to the surface of the covering soil in various dosages. • After the treatment, the pots are placed in a greenhouse and kept under good growth conditions for the test plants. The visual assessment of the emergence damage on the test plants is carried out after a trial period of about 3 weeks by comparison with untreated controls (herbicidal effect in %: 100% effect=the plants have died, 0% effect=like control plants). • In addition to the compounds mentioned above, the following compounds, applied by the pre-emergence method at 320 g of a.i./ha, show an efficacy of 90% against Lolium multiflorum and Setaria viridis: I-1-a-1 • In addition to the compounds mentioned above, the following compounds, applied by the pre-emergence method at 320 g of a.i./ha, show an efficacy of 100% against Echinocloa crus-galli: I-a-2, I-b-1, I-b-2, I-c-2 2. Herbicidal Post-Emergence Action • Seeds of monocotyledonous and dicotyledonous weed and crop plants are placed in sandy loam in wood fibre pots, covered with soil and cultivated in a greenhouse under good growth conditions. 2-3 weeks after sowing, the test plants are treated at the one-leaf stage. The test compounds, formulated as wettable powders (WP), are, in various dosages at a water application rate of 600 l/ha (converted), with 0.2% of wetting agent added, sprayed onto the green parts of the plants. After the test plants have been kept in the greenhouse under optimum growth conditions for about 3 weeks, the effect of the preparations is rated visually in comparison to untreated controls (herbicidal effect in %: 100% effect=the plants have died, 0% effect=like control plants). • In addition to the compounds mentioned above, the following compounds, applied by the post-emergence method at 80 g/ha, show an efficacy of 90% against Echinocloa crus-galli and Lolium multiflorum: I-a-3, I-a-4, I-a-5.

Lolium multiflorum = experiment: Herbicidal post-emergence action; conditions: post-emergence method, 80 g/ha; about 3 weeks
Source text: as §3

[5] = tested on: larva of the mustard beetle (Phaedon cochleariae); experiment: Phaedon test (PHAECO spray treatment); conditions: Chinese cabbage leaf discs, after 7 days
Protocol: Phaedon Test ([…] Spray Treatment) Solvents: 78.0 parts by weight of acetone • • 1.5 parts by weight of dimethylformamide Emulsifier: 0.5 part by weight of alkylaryl polyglycol ether To produce a suitable preparation of active compound, one part by weight of active compound is mixed with the stated amounts of solvents and emulsifier, and the concentrate is diluted with emulsifier-containing water to the desired concentration. Discs of Chinese cabbage (Brassica pekinensis) are sprayed with an active compound preparation of the desired concentration and, after drying, populated with larva of the mustard beetle (Phaedon cochleariae).

Echinocloa crus-galli [6] = experiment: Herbicidal pre-emergence action; conditions: pre-emergence method, 320 g of a.i./ha; about 3 weeks
Source text: 1. Herbicidal Pre-Emergence Action
as §3

Lucilia cuprina larva = experiment: Lucilia cuprina test (LUCICU); conditions: application rate 100 ppm; treated horse meat; after 2 days
Protocol: Lucilia cuprina Test (LUCICU)
Solvent: Dimethyl sulphoxide
To produce a suitable preparation of active compound, 10 mg of active compound are mixed with 0.5 ml of dimethyl sulphoxide and the concentrate is diluted with water to the desired concentration. Containers containing horse meat treated with the active compound preparation of the desired concentration are populated with about 20 Lucilia cuprina larva.
After 2 days, the kill in % is determined. 100% means that all larva have been killed; 0% means that none of the larva have been killed.

Compound	efficacy (effect in %, caterpillars killed) [1] [%]	efficacy (effect in %, aphids killed) [2] [%]	efficacy (effect in %, spidermites killed) [3] [%]	other results
CON1CCC2(CC1)NC(=O)C(c1cc(-c3ccc(F)cc3)ccc1C)=C2O [I-a-5]	100	100	90	efficacy (herbicidal effect in %) (Echinocloa crus-galli [4]): 90%; efficacy (herbicidal effect in %) (Lolium multiflorum): 90%
CCON1CCC2(CC1)NC(=O)C(c1cc(-c3ccc(F)cc3)ccc1Cl)=C2O [I-a-3]	83	100	90	efficacy (effect in %, beetle larva killed) ([5]; application rate 500 g/ha): 100%; efficacy (herbicidal effect in %) (Echinocloa crus-galli [4]): 90%; efficacy (herbicidal effect in %) (Lolium multiflorum): 90%
CCON1CCC2(CC1)NC(=O)C(c1c(CC)ccc(-c3ccc(F)cc3)c1C)=C2O [I-a-9]		90	90	efficacy (effect in %, beetle larva killed) ([5]; application rate 500 g/ha): 100%
CON1CCC2(CC1)NC(=O)C(c1cc(-c3ccc(F)cc3)ccc1Cl)=C2O [I-a-4]	83	100	100	efficacy (herbicidal effect in %) (Echinocloa crus-galli [4]): 90%; efficacy (herbicidal effect in %) (Lolium multiflorum): 90%
CON1CCC2(CC1)NC(=O)C(c1c(C)ccc(-c3ccc(F)cc3)c1C)=C2OC(=O)C(C)C [I-b-1]	100	100		efficacy (herbicidal effect in %) (Echinocloa crus-galli [6]): 100%
CCON1CCC2(CC1)NC(=O)C(c1c(C)ccc(-c3ccc(F)c(F)c3)c1C)=C2O [I-a-11]		100	100	
COc1ccc(-c2ccc(F)cc2)c(Cl)c1C1=C(O)C2(CCN(OC)CC2)NC1=O [I-a-10]		100	90	
CCON1CCC2(CC1)NC(=O)C(c1c(C)ccc(-c3ccc(F)c(Cl)c3)c1C)=C2O [I-a-12]	83	100	100	
CCON1CCC2(CC1)NC(=O)C(c1c(OC)ccc(-c3ccc(F)cc3)c1Cl)=C2O [I-a-7]		100	90	
CCOC(=O)OC1=C(c2c(OC)ccc(-c3ccc(F)cc3)c2Cl)C(=O)NC12CCN(OC)CC2 [I-c-3]			90	
CCON1CCC2(CC1)NC(=O)C(c1cc(-c3ccc(F)cc3)ccc1C)=C2O [I-a-6]	100	100	90	efficacy (effect in %, beetle larva killed) ([5]; application rate 100 g/ha): 100%
CCON1CCC2(CC1)NC(=O)C(c1c(C)ccc(-c3ccc(F)cc3)c1C)=C2OC(=O)C(C)C [I-b-2]	100	100		efficacy (herbicidal effect in %) (Echinocloa crus-galli [6]): 100%
CCON1CCC2(CC1)NC(=O)C(c1c(C)ccc(-c3ccc(Cl)c(F)c3)c1C)=C2O [I-a-14]	100	100	90	
CCc1ccc(-c2ccc(F)cc2)c(C)c1C1=C(O)C2(CCN(OC)CC2)NC1=O [I-a-8]		90	90	efficacy (effect in %, beetle larva killed) ([5]; application rate 500 g/ha): 100%
CCOC(=O)OC1=C(c2c(C)ccc(-c3ccc(F)cc3)c2C)C(=O)NC12CCN(OC)CC2 [I-c-1]	100	100		
CON1CCC2(CC1)NC(=O)C(c1c(C)ccc(-c3ccc(F)c(F)c3)c1C)=C2O [I-a-13]		100	100	
CCOC(=O)OC1=C(c2c(C)ccc(-c3ccc(F)cc3)c2C)C(=O)NC12CCN(OCC)CC2 [I-c-2]	100	100		efficacy (kill in %) (Lucilia cuprina larva): 80%; efficacy (herbicidal effect in %) (Echinocloa crus-galli [6]): 100%
CON1CCC2(CC1)NC(=O)C(c1c(C)ccc(-c3ccc(Cl)c(F)c3)c1C)=C2O [I-a-15]	100	100	100	
